Assay results reported in patent publication US20240132511A1, “TREATMENTS OF PRADER-WILLI SYNDROME” (Neuren Pharmaceuticals Limited, priority 2021, published 2024).

Columns and labels:
[1] = tested on: Magel2-null mice; experiment: Novel Object Recognition (NOR); assay type: in vivo, mouse; set-up: key: **** = p < 0.0001; ns = not significant
From the text: (§1) The mouse locus 7qB4/B5 (syntenic with the Prader-Willi region at chromosome position 15q11-q13 in humans) encompasses the cluster of paternally-expressed imprinted genes Magel2, Ndn, Mkrn3, and Peg12. As maternal imprinting silences the Magel2 allele, only the paternally inherited Magel2 allele is expressed. Heterozygous females were bred with wild-type males (or C57BL/6J inbred males) to maintain the line; as the resulting offspring will have no abnormal phenotype. To obtain “Magel2-null” offspring (both maternal and paternal Magel2 alleles are non-functional), wild-type females are bred with heterozygous males; allowing maternal transmission of the imprinted/silenced wild-type allele and paternal transmission of the Magel2-lacZ (null) allele. Magel2-null mice have disrupted circadian rhythm and metabolism, total activity, food consumption, weight before weaning, and fertility in both sexes, as well as increased adiposity after weaning and altered behavior. Magel2-null mice on this C57BL/6J genetic background recapitulate Prader-Willi syndrome. Because the genetic mutation in the Magel2-null animals is the same as the mutation in human beings, studies in Magel2-null mice are reasonably predictive of effects of compounds in human beings.
(§2) In vivo experiments were conducted in C57BL/6-Magel2tm1Stw/J (Magel2-null) mice at age P60 and their wild-type littermates during the light phase (littermates that were wild-type for Magel2 were used as controls). Ten mice per treatment group were used for studies 1 and 2, and six mice per group for study 3. In study 1: C57BL/6-Magel2tm1Stw/J (Magel2-null) mice were assessed on behavioral assays. Study 2 tested the efficacy of cG-2-AllylP in treating obesity and insulin levels in Magel2-null mice. Study 3 tested the IGF-1 level in Magel2-null mice. Because human beings have the same genetic abnormality, studies of Magel2-null mice are reasonably predictive of effects of compounds of Formulas I, II, III and IV in human beings with Prader-Willi Syndrome.
(§3) Testing was performed during the light phase of the circadian cycle, with the order of testing being determined by the principle of conducting the most stressful tests last. Assays were designed to reproduce and expand on the original behavioral characterization of Magel2-null mice. Magel2-null and wild-type control mice were dosed once daily for 6 weeks prior to testing and tested 30 minutes following a dose of cG-2-AllylP (NNZ2591). Study groups and the treatment matrix are described in Table 2 below.
The NOR test is used to evaluate cognition, based on the tendency for mice to spend more time exploring a novel object that a familiar object. Magel2-null mice display a lack of discrimination between known and novel objects.

[2] = tested on: Magel2-null mice; experiment: Circulating IGF-1 level in Magel2-null mice; assay type: in vivo, mouse; set-up: key: **** = p < 0.0001; ns = not significant
Experimental: as §2, §3
Prader-Willi Syndrome may be associated with altered IGF-1 levels in humans.

[3] = tested on: subjects with Prader-Willi syndrome; experiment: Proposed randomized, double-blind placebo controlled study in subjects with Prader-Willi syndrome; assay type: in vivo, human
From the text: For the proposed study thirty subjects with Prader-Willi syndrome are recruited. Subjects are females and males aged between 4 and 20 years (Mean=12.1 SD=4.4). All subjects have confirmed loss of function in the 15q11-q13 region on the paternal copy of chromosome 15 and also meet diagnostic criteria for Prader-Willi syndrome based on assessment of behavioral and somatic symptoms. The majority of subjects (72%) are being treated with rhGH at screening. Subjects are instructed that concomitant medications are to be stable for at least six weeks prior to study.
The study is a randomized, double-blind placebo controlled parallel study with subjects randomized 1:1:1 to placebo, 6 mg/kg or 12 mg/kg of Cyclo-L-Glycyl-L-2-Allylproline is to be administered as an oral liquid twice daily for eighty-four days.
Subjects are tested at baseline using the following instruments: the Hyperphagia Questionnaire for Clinical Trials (HQ-CT), the Clinical Global Impression of Severity (CGI-S), the Caregiver Global Impression of Change (CaGI-I), the Aberrant Behavior Checklist (ABC) and ABC Subscales, the Social Responsiveness Scale, the Repetitive Behavior Scale-Revised (RBS-R), the PWS Anxiety and Distress Questionnaire (PADQ) and the Children's Yale-Brown Obsessive-Compulsive Scale (CY-BOCS). In addition, the following measurements are made at baseline: Body Fat Assessment (BFA), fasting blood glucose, blood lipids (HDL, LDL, VLDL, triglycerides), serum IGF-1 (total, bound to IGF-1 Binding Protein-3 [IGFBP-3]), fasting insulin and the Homeostatic Model Assessment for Insulin Resistance (HOMA-IR).
The effect of treatment with Cyclo-L-Glycyl-L-2-Allylproline is analyzed by conducting a repeated analysis of covariance (ANCOVA) on change from baseline scores for each of the measures plus the Clinical Global Impression of Change (CGI-I). Safety is assessed using caregiver reports of adverse events, a panel of standard laboratory tests and electrocardiograms (ECG).

[4] = tested on: Magel2-null mice; experiment: Nest building quality; assay type: in vivo, mouse; set-up: key: **** = p < 0.0001; ns = not significant
From the text: as §1, §2, §3
For small rodents, nests are important in heat conservation as well as reproduction and shelter. Nest building is an activity needed for mice to raise their offspring and is an indicator of social adaptation and activities of daily living. Typically, changes in nesting behaviors, such as failure to create a nest, indicate a change in health or welfare. Nesting behavior is sensitive to many genetic mutations underlying pathological disease states.
Nesting behavior is impaired in Magel2-null mice. Therefore, to determine if cG-2-AllylP might restore the quality of nest building, a series of studies were carried out.

[5] = tested on: Magel2-null mice; experiment: Partition test of social preference; assay type: in vivo, mouse; set-up: key: **** = p < 0.0001; ns = not significant
From the text: as §1, §2, §3
People with Prader-Willi Syndrome show deficits in social behavior compared with people without Prader-Willi Syndrome. Two tests were carried out to assess the social behavior deficits of Magel2-null mice.
The partition test of social preference measures the preference shown for an object versus a familiar mouse.

[6] = Magel2-null + NNZ2591 (100 mg/kg) vs. Magel2-null + NNZ2591 (200 mg/kg)
[7] = Magel2-null + Vehicle vs. Magel2-null + NNZ2591 (200 mg/kg)
[8] = WT + NNZ2591 (100 mg/kg) vs. Magel2-null + NNZ2591 (100 mg/kg)
[9] = WT + NNZ2591 (200 mg/kg) vs. Magel2-null + NNZ2591 (200 mg/kg)
[10] = WT + Vehicle vs. WT + NNZ2591 (100 mg/kg)
[11] = WT + Vehicle vs. WT + NNZ2591 (200 mg/kg)
[12] = Magel2-null + Vehicle vs. Magel2-null + NNZ2591 (100 mg/kg)
[13] = 6 mg/kg or 12 mg/kg oral liquid twice daily for eighty-four days
[14] = 6 mg/kg or 12 mg/kg oral liquid twice daily for eighty-four days vs placebo

In the case of `C=CCC12CCCN1C(=O)CNC2=O` [cG-2-AllylP, (8aS)-Allyl-hexahydropyrrolo[1,2-a]pyrazine-1,4-dione], the “Novel object recognition, Sidak's multiple comparisons test, Summary” value (from here on “Novel object recognition”) [1, 6] was “ns”, the “Novel object recognition” value [1, 7] was “**** (**** = p < 0.0001)” and the “Novel object recognition” value [1, 8] was “ns”. For the same molecule, the “Novel object recognition” value [1, 9] was “ns”, the “Novel object recognition” value [1, 10] was “ns” and the “Novel object recognition” value [1, 11] was “ns”. For the same molecule, the “IGF-1 level, Sidak's multiple comparisons test, Summary” value (from here on “IGF-1 level”) [2, 12] was “**** (**** = p < 0.0001)”, the “IGF-1 level” value [2, 9] was “ns” and the “IGF-1 level” value [2, 10] was “ns”. For the same molecule, the “IGF-1 level” value [2, 11] was “ns”, the “Duration and severity of adverse events” value [3, 13] was “short duration and mild severity” and the “Serious Adverse Events” value [3, 13] was “No Serious Adverse Events are reported”. For the same molecule, the “Incidence of treatment-emergent adverse events” value [3, 14] was “no difference in the incidence of treatment-emergent adverse events between placebo and either dose”, the “Laboratory tests and ECG measures” value [3, 14] was “no treatment-related pattern of abnormalities on laboratory tests or ECG measures” and the “Nesting, Sidak's multiple comparisons test, Summary” value (shortened to “Nesting … Summary”) [4, 6] was “ns”. The “Nesting … Summary” value [4, 12] was “**** (**** = p < 0.00001.)”, the “Nesting … Summary” value [4, 7] was “**** (**** = p < 0.00001.)” and the “Nesting … Summary” value [4, 8] was “ns”. The “Nesting … Summary” value [4, 9] was “ns”, the “Nesting … Summary” value [4, 10] was “ns” and the “Nesting … Summary” value [4, 11] was “ns”. The “Social preference, Sidak's multiple comparisons test, Summary” value (shortened to “Social preference”) [5, 12] was “**** (**** = p < 0.0001)”, the “Social preference” value [5, 7] was “**** (**** = p < 0.0001)” and the “Social preference” value [5, 8] was “ns”. For the same molecule, the “Social preference” value ([5]; WT + NNZ2591 (100 mg/kg) vs. Magel2-null + NNZ2591 (200 mg/kg)) was “ns”, the “Social preference” value [5, 9] was “ns” and the “Social preference” value [5, 10] was “ns”. The “Social preference” value [5, 11] was “ns”.
